Data reported in patent US20120277109A1, “PROXIMITY-MEDIATED ASSAYS FOR DETECTING ONCOGENIC FUSION PROTEINS” (Prometheus Laboratories Inc., priority 2009, published 2012).
Read-outs that look alike come from different tables or passages of the source.

Columns and labels:
[1] = tested on: patients with chronic myelogenous leukemia (CML); details: cited from earlier work
BCR-ABL substrate CRKL = test: Sandwich ELISA of total and activated (phosphorylated) CRKL in cancer cell lines after growth factor treatment; assay type: cell-based, human
[2] = 400 mg/day imatinib, after 7 years

Cc1cn(-c2cc(NC(=O)c3ccc(C)c(Nc4nccc(-c5cccnc5)n4)c3)cc(C(F)(F)F)c2)cn1 [nilotinib]
toxicity ([1]; nilotinib compared with imatinib): more toxic than imatinib

heregulin
CRKL activation (i.e., phosphorylation) upon treatment (BCR-ABL substrate CRKL; MCF-7 cells): activated (i.e., phosphorylated) at low levels | CRKL activation (i.e., phosphorylation) upon treatment (BCR-ABL substrate CRKL; T47D cells): activated (i.e., phosphorylated) at low levels

epidermal growth factor [EGF, stimulatory growth factor]
CRKL activation (i.e., phosphorylation) upon treatment (BCR-ABL substrate CRKL; A431 cells): activated | CRKL activation (i.e., phosphorylation) upon treatment (BCR-ABL substrate CRKL; T47D cells): not activated

Cc1ccc(NC(=O)c2ccc(CN3CCN(C)CC3)cc2)cc1Nc1nccc(-c2cccnc2)n1 [imatinib]
complete cytogenetic response (CCyR) ([1]; 400 mg/day imatinib, % of patients): 70-80% | even free survival rate [1, 2]: 81% | overall survival rate [1, 2]: 90% | relapse rate ([1]; 400 mg/day imatinib, in 5 years): about 30% | loss of CCyR rate ([1]; 400 mg/day imatinib, in the first 3 years): 4 to 7 %/yr | loss of CCyR rate ([1]; 400 mg/day imatinib, thereafter (after first 3 years)): 1 to 2 %/yr | toxicity ([1]; 800 mg/day imatinib compared with 400 mg/day): more toxic | CCyR ([1]; 800 mg/day imatinib): 95% | relapse rate ([1]; 800 mg/day imatinib): 5% | patients who do not achieve durable complete cytogenetic responses ([1]; first line therapy, newly diagnosed patients with CML): 20-25%
